Measured values reported in patent US20230151049A1, “Compounds Useful in HIV Therapy” (priority 2020, published 2023).
Where two headings read alike, the source gives them in different places.

Test: in vivo
Conditions: for concentration at 1 day / concentration at 7 day / concentration at 14 day / concentration at 21 day / concentration at 28 day / concentration at 35 day / concentration at 42 day / concentration at 49 day / concentration at 56 day / concentration at 63 day / concentration at 70 day / concentration at 77 day / concentration at 84 day: male, Wistar Han, rat, in vivo
From the text: General Protocol for Prodrugs Rat PK Studies Conducted at ChemPartner, China
A total of three naïve male Wistar Han rats, 200-250 g, were received from Beijing VR Laboratory Animal Co. LTD. Following an acclimation period, the animals were assigned to the study based on acceptable health as determined by a staff veterinarian and catheter patency. Fasting of the animals before or after dosing was not required.
On Day 1, each animal received a single intramuscular injection of prepared test article at a target dose level of 20 mg/kg equivalent of EFdA and at a dose volume of 2 mL/kg. The injection sites were at gastrocnemius and identified with an indelible marker for daily monitoring during the study. The animals were manually restrained for dosing and were not sedated. The dose suspension was mixed well by inversion before each dose to ensure homogeneity. […] In addition, all animals are monitored twice daily by the veterinary staff for clinical abnormalities.
Blood samples were collected from the study animals as detailed in the sample collection Table 6 below
Each blood sample for PK (200 μL) was collected from tail vein. The blood was transferred to a tube containing NaF/Na2EDTA anticoagulant and inverted several times to mix. Draw 150 μL whole blood from the tube, add 150 uL 100 mM ammonium acetate, pH 4 buffer and mix well. The resulting blood samples were transferred to individual polypropylene tubes and immediately placed on dry ice until storage at nominally −80° C. prior to LC-MS/MS analysis.

[1] = day 35, single IM Example 19A 55 mg/kg
[2] = day 42, single IM Example 19A 55 mg/kg
[3] = day 49, single IM Example 19A 55 mg/kg

For `C#C[C@]1(COP(=O)(N[C@@H](Cc2ccccc2)C(=O)OCCCCCCCCCCCCCCC)Oc2ccccc2)O[C@@H](n2cnc3c(N)nc(F)nc32)C[C@@H]1O` (single isomer, unassigned) [Example 19A], the “Mean concentration of EFdA” value (day 28, single IM Example 19A 55 mg/kg) was “BQL (BQL = below quantification limit, 0.3 ng/mL for both)”, the “Mean concentration of EFdA” value [1] was “BQL (BQL = below quantification limit, 0.3 ng/mL for both)” and the “Mean concentration of Example 19A” value [1] was “BQL (BQL = below quantification limit, 0.3 ng/mL for both)”. The “Mean concentration of EFdA” value [2] was “BQL (BQL = below quantification limit, 0.3 ng/mL for both)”, the “Mean concentration of Example 19A” value [2] was “BQL (BQL = below quantification limit, 0.3 ng/mL for both)” and the “Mean concentration of EFdA” value [3] was “BQL (BQL = below quantification limit, 0.3 ng/mL for both)”. The “Mean concentration of Example 19A” value [3] was “BQL (BQL = below quantification limit, 0.3 ng/mL for both)”, the concentration at 1 day (day 1, single IM Example 19A 55 mg/kg, read-out: Mean concentration of Example 19A) was 2.37 ng/mL and the concentration at 7 day (day 7, single IM Example 19A 55 mg/kg, read-out: Mean concentration of Example 19A) was 9.08 ng/mL. For the same compound, the concentration at 14 day (day 14, single IM Example 19A 55 mg/kg, read-out: Mean concentration of Example 19A) was 3.06 ng/mL, the concentration at 21 day (day 21, single IM Example 19A 55 mg/kg, read-out: Mean concentration of Example 19A) was 1.45 ng/mL and the concentration at 28 day (day 28, single IM Example 19A 55 mg/kg, read-out: Mean concentration of Example 19A) was 0.909 ng/mL.

With `C#C[C@]1(COP(=O)(N[C@@H](Cc2ccccc2)C(=O)OCCCCCCCCCCCCCCCCCCCCCC)Oc2ccccc2)O[C@@H](n2cnc3c(N)nc(F)nc32)C[C@@H]1O` (single isomer, unassigned) [Example 1B] the “Mean concentration of EFdA” value (day 1, single IM Example 1B 62 mg/kg) was “BQL (BQL = below quantification limit; 0.3 ng/mL for both)”, the “Mean concentration of EFdA” value (day 7, single IM Example 1B 62 mg/kg) was “BQL (BQL = below quantification limit; 0.3 ng/mL for both)” and the “Mean concentration of EFdA” value (day 14, single IM Example 1B 62 mg/kg) was “BQL (BQL = below quantification limit; 0.3 ng/mL for both)”. For the same compound, the “Mean concentration of EFdA” value (day 21, single IM Example 1B 62 mg/kg) was “BQL (BQL = below quantification limit; 0.3 ng/mL for both)”, the “Mean concentration of EFdA” value (day 28, single IM Example 1B 62 mg/kg) was “BQL (BQL = below quantification limit; 0.3 ng/mL for both)” and the “Mean concentration of EFdA” value (day 35, single IM Example 1B 62 mg/kg) was “BQL (BQL = below quantification limit; 0.3 ng/mL for both)”. For the same compound, the “Mean concentration of EFdA” value (day 42, single IM Example 1B 62 mg/kg) was “BQL (BQL = below quantification limit; 0.3 ng/mL for both)”, the “Mean concentration of EFdA” value (day 49, single IM Example 1B 62 mg/kg) was “BQL (BQL = below quantification limit; 0.3 ng/mL for both)” and the “Mean concentration of EFdA” value (day 56, single IM Example 1B 62 mg/kg) was “BQL (BQL = below quantification limit; 0.3 ng/mL for both)”. The “Mean concentration of EFdA” value (day 63, single IM Example 1B 62 mg/kg) was “BQL (BQL = below quantification limit; 0.3 ng/mL for both)”, the “Mean concentration of EFdA” value (day 70, single IM Example 1B 62 mg/kg) was “BQL (BQL = below quantification limit; 0.3 ng/mL for both)” and the “Mean concentration of EFdA” value (day 77, single IM Example 1B 62 mg/kg) was “BQL (BQL = below quantification limit; 0.3 ng/mL for both)”. For the same compound, the “Mean concentration of EFdA” value (day 84, single IM Example 1B 62 mg/kg) was “BQL (BQL = below quantification limit; 0.3 ng/mL for both)”, the concentration at 1 day (day 1, single IM Example 1B 62 mg/kg, read-out: Mean concentration of Example 1B) was 70.5 ng/mL and the concentration at 7 day (day 7, single IM Example 1B 62 mg/kg, read-out: Mean concentration of Example 1B) was 8.75 ng/mL. The concentration at 14 day (day 14, single IM Example 1B 62 mg/kg, read-out: Mean concentration of Example 1B) was 6.78 ng/mL, the concentration at 21 day (day 21, single IM Example 1B 62 mg/kg, read-out: Mean concentration of Example 1B) was 3.53 ng/mL and the concentration at 28 day (day 28, single IM Example 1B 62 mg/kg, read-out: Mean concentration of Example 1B) was 4.36 ng/mL. It also gave a concentration at 35 day (day 35, single IM Example 1B 62 mg/kg, read-out: Mean concentration of Example 1B) of 1.72 ng/mL, a concentration at 42 day (day 42, single IM Example 1B 62 mg/kg, read-out: Mean concentration of Example 1B) of 1.92 ng/mL and a concentration at 49 day (day 49, single IM Example 1B 62 mg/kg, read-out: Mean concentration of Example 1B) of 0.912 ng/mL. For the same compound, the concentration at 56 day (day 56, single IM Example 1B 62 mg/kg, read-out: Mean concentration of Example 1B) was 1.33 ng/mL, the concentration at 63 day (day 63, single IM Example 1B 62 mg/kg, read-out: Mean concentration of Example 1B) was 0.748 ng/mL and the concentration at 70 day (day 70, single IM Example 1B 62 mg/kg, read-out: Mean concentration of Example 1B) was 0.767 ng/mL. It also gave a concentration at 77 day (day 77, single IM Example 1B 62 mg/kg, read-out: Mean concentration of Example 1B) of 1.55 ng/mL and a concentration at 84 day (day 84, single IM Example 1B 62 mg/kg, read-out: Mean concentration of Example 1B) of 2.48 ng/mL.

With `C#C[C@]1(COP(=O)(N[C@@H](Cc2cc(F)cc(F)c2)C(=O)OCCCCCCCCCCCCCCCCCC)Oc2ccccc2)O[C@@H](n2cnc3c(N)nc(F)nc32)C[C@@H]1O` (single isomer, unassigned) [Example 40A] the “Mean concentration of EFdA” value (day 14, single IM Example 40A 60 mg/kg) was “BQL (BQL = below quantification limit, 0.3 ng/ml for both)”, the “Mean concentration of EFdA” value (day 21, single IM Example 40A 60 mg/kg) was “BQL (BQL = below quantification limit, 0.3 ng/ml for both)” and the “Mean concentration of EFdA” value (day 28, single IM Example 40A 60 mg/kg) was “BQL (BQL = below quantification limit, 0.3 ng/ml for both)”. For the same compound, the “Mean concentration of EFdA” value (day 35, single IM Example 40A 60 mg/kg) was “BQL (BQL = below quantification limit, 0.3 ng/ml for both)”, the “Mean concentration of EFdA” value (day 42, single IM Example 40A 60 mg/kg) was “BQL (BQL = below quantification limit, 0.3 ng/ml for both)” and the “Mean concentration of EFdA” value (day 49, single IM Example 40A 60 mg/kg) was “BQL (BQL = below quantification limit, 0.3 ng/ml for both)”. For the same compound, the “Mean concentration of EFdA” value (day 56, single IM Example 40A 60 mg/kg) was “BQL (BQL = below quantification limit, 0.3 ng/ml for both)”, the “Mean concentration of EFdA” value (day 63, single IM Example 40A 60 mg/kg) was “BQL (BQL = below quantification limit, 0.3 ng/ml for both)” and the “Mean concentration of EFdA” value (day 70, single IM Example 40A 60 mg/kg) was “BQL (BQL = below quantification limit, 0.3 ng/ml for both)”. For the same compound, the “Mean concentration of EFdA” value (day 77, single IM Example 40A 60 mg/kg) was “BQL (BQL = below quantification limit, 0.3 ng/ml for both)”, the “Mean concentration of EFdA” value (day 84, single IM Example 40A 60 mg/kg) was “BQL (BQL = below quantification limit, 0.3 ng/ml for both)” and the concentration at 1 day (day 1, single IM Example 40A 60 mg/kg, read-out: Mean concentration of Example 40A) was 59.2 ng/mL. It also gave a concentration at 7 day (day 7, single IM Example 40A 60 mg/kg, read-out: Mean concentration of Example 40A) of 22.4 ng/mL, a concentration at 14 day (day 14, single IM Example 40A 60 mg/kg, read-out: Mean concentration of Example 40A) of 11.2 ng/mL and a concentration at 21 day (day 21, single IM Example 40A 60 mg/kg, read-out: Mean concentration of Example 40A) of 11.2 ng/mL. It also gave a concentration at 28 day (day 28, single IM Example 40A 60 mg/kg, read-out: Mean concentration of Example 40A) of 12.7 ng/mL, a concentration at 35 day (day 35, single IM Example 40A 60 mg/kg, read-out: Mean concentration of Example 40A) of 12.6 ng/mL and a concentration at 42 day (day 42, single IM Example 40A 60 mg/kg, read-out: Mean concentration of Example 40A) of 13.2 ng/mL. The concentration at 49 day (day 49, single IM Example 40A 60 mg/kg, read-out: Mean concentration of Example 40A) was 11.7 ng/mL, the concentration at 56 day (day 56, single IM Example 40A 60 mg/kg, read-out: Mean concentration of Example 40A) was 14.7 ng/mL and the concentration at 63 day (day 63, single IM Example 40A 60 mg/kg, read-out: Mean concentration of Example 40A) was 13 ng/mL. It also gave a concentration at 70 day (day 70, single IM Example 40A 60 mg/kg, read-out: Mean concentration of Example 40A) of 12.2 ng/mL, a concentration at 77 day (day 77, single IM Example 40A 60 mg/kg, read-out: Mean concentration of Example 40A) of 11.7 ng/mL and a concentration at 84 day (day 84, single IM Example 40A 60 mg/kg, read-out: Mean concentration of Example 40A) of 10.3 ng/mL.
